Experiments:
KDM1A (LSD1) = KDM1A (LSD1) (Homo sapiens (Human), UniProt O60341); test: 10-dose IC50 fluorescence coupling enzyme assay, LSD1 demethylase activity on histone H3(1-21)K4me2 peptide (HRP/Amplex Red); format: biochemical; conditions: 10 μM histone H3(1-21)K4me2 peptide substrate
[1] = Metabolic stability in murine liver microsomes; format: in vitro ADME; conditions: mouse liver microsomes, 2 μM compound, NADPH
Description: The metabolic stability of compounds disclosed herein in pooled human liver microsomes (HLM) and pooled male mouse liver microsomes (MMLM) was determined according to the following protocol, in which the concentrations of compounds in reaction systems were evaluated by LC/MS/MS for estimating the stability in liver microsomes.
Pooled human liver microsomes (HMMCPL; PL050B) and pooled male mouse liver microsomes (MSMCPL; MS033) were purchased from CellzDirect (Invitrogen). Microsomes were stored at −80 C prior to use.
A master solution was prepared containing microsome (stock concentration 5 mg/mL, volume 50 μL, final concentration 0.5 mg/mL), MgCl2 solution (stock concentration 50 mM, volume 50 μL, final concentration 5 mM), phosphate buffer (stock concentration 200 mM, volume 250 μL, final concentration 100 mM), and water (volume […]. Five μL of 200 μM test compounds or control solution (control compound: verapamil) was then added. The final concentration of test compounds or verapamil in the reaction system was 2 μM. The mixture was pre-warmed at 37 C for 5 min.
The reaction was started with the addition of 50 μL of 10 mM NADPH solution at the final concentration of 1 mM and carried out at 37 C. 50 μL of ultra-pure H2O was used instead of NADPH solution in the negative control.
Aliquots of 50 μL were taken from the reaction solution at 0 and 30 min. The reaction was stopped by the addition of 3 volumes of cold methanol with IS (200 nM imipramine, 200 nM labetalol and 2 μM ketoprofen) at the designated time points. Samples were centrifuged at 16,000 g for 10 minutes to precipitate protein. Aliquot of 100 μL of the supernatant was diluted by 100 μL ultra-pure H2O, and the mixture was used for LC/MS/MS analysis. All experiments were performed in duplicate.
Samples were analyzed using liquid chromatography-mass spectrometry. The LC system comprised a Shimadzu liquid chromatograph separation system equipped with degasser DGU-20A3, solvent delivery unit LC-20AD, system controller CBM-20A, column oven CTO-10ASVP and CTC Analytics HTC PAL System. Chromatographic conditions included a Phenomenex column, 5.0μ C18 (2.0×50 mm); a mobile phase of 0.1% formic acid in acetonitrile and 0.1% formic acid in water; an elution rate of 500 μL/min; column temperature 25 C; injection volume 10 μL. Mass spectrometric analysis was performed using an API 4000 instrument from AB Inc. (Canada) with an ESI interface. The data acquisition and control system were created using Analyst 1.5.1 software from ABI Inc. A turbo spray ion source and electrospray ionization were employed in a multiple reaction monitoring (MRM) scan. Additional parameters included: collision gas, 6 L/min; curtain gas, 30 L/min; nebulize gas, 50 L/min; auxiliary gas, 50 L/min; temperature, 500 C; ionspray voltage, +5500 v (positive MRM). Quadripoles Q1 and Q3 were set to 456.2 and 200.2, respectively; declustering potential (DP), entrance potential (EP), and collision cell entrance potential (CE) were set to 120, 10, and 55 v, respectively; collision cell exit potential (CXP) was 12 v.
All calculations were carried out using Microsoft Excel. Peak areas were determined from extracted ion chromatograms. The control compounds were included in the assay. Any value of the compounds that was not within the specified limits was rejected and the experiment was repeated. The reaction system without the cofactors was used to exclude the misleading factor that resulted from instability of chemical itself.

| SMILES | IC50 (KDM1A (LSD1)) [nM] | % at 30 min, MLM [1] |
| --- | --- | --- |
| CCN(CC)C(=O)[C@H](CCCCN[C@@H]1C[C@H]1c1ccccc1)NC(=O)c1ccccc1 [Example 5] | < 1000 | – |
| O=C(N[C@@H](CCCCN[C@@H]1C[C@H]1c1ccc(F)cc1)C(=O)N1CCCCC1)c1ccccc1 [Example 10, N—((S)-6-(((1R,2S)-2-(4-fluorophenyl)cyclopropyl)amino)-1-oxo-1-(piperidin-1-yl)hexan-2-yl)benzamide] | < 1000 | − (− is <20%) |
| O=C(N[C@@H](CCCCN[C@@H]1C[C@H]1c1ccc(F)cc1)C(=O)N1CCCCC1)c1ccc(F)cc1 [Example 13, 4-fluoro-N—((S)-6-(((1R,2S)-2-(4-fluorophenyl)cyclopropyl)amino)-1-oxo-1-(piperidin-1-yl)hexan-2-yl)] | < 1000 | − (− is <20%) |
| CN1CCN(C(=O)[C@H](CCCCN[C@@H]2C[C@H]2c2ccc(F)cc2)NC(=O)c2ccc(F)cc2)CC1 [Example 3, 4-fluoro-N—((S)-6-(((1R,2S)-2-(4-fluorophenyl)cyclopropyl)amino)-1-(4-methylpiperazin-1-yl)-1-oxohexan-2-yl)benzamide] | < 1000 | + (+ is ≥20%) |
| CS(=O)(=O)N1CCN(C(=O)[C@H](CCCN[C@@H]2C[C@H]2c2ccc(F)cc2)NC(=O)c2ccc(F)cc2)CC1 [Example 29, 4-fluoro-N-[(2S)-5-[[(1R,2S)-2-(4-fluorophenyl)cyclopropyl]amino]-1-(4-methanesulfonylpiperazin-1-yl)-1-oxopentan-2-yl]benzamide] | – | − (− is <20%) |
| CN1CCN(C(=O)[C@H](CCCCN[C@@H]2C[C@H]2c2ccc(F)cc2)NC(=O)c2ccccc2)CC1 [Example 12, N—((S)-6-(((1R,2S)-2-(4-fluorophenyl)cyclopropyl)amino)-1-(4-methylpiperazin-1-yl)-1-oxohexan-2-yl)benzamide] | < 1000 | + (+ is ≥20%) |
| O=C(N[C@@H](CCCCN[C@@H]1C[C@H]1c1ccc(F)cc1)C(=O)N1CCCCC1)c1cnc[nH]1 [Example 23, N—((S)-6-((1R,2S)-2-(4-fluorophenyl)cyclopropylamino)-1-oxo-1-(piperidin-1-yl)hexan-2-yl)-1H-imidazole-5-carboxamide] | < 1000 | – |
| COc1ccc([C@@H]2C[C@H]2NCCS(=O)(=O)C[C@H](NC(=O)c2ccc(F)cc2)C(=O)N2CCOCC2)cc1 [Example 18, 4-fluoro-N—((R)-3-((2-(((1R,2S)-2-(4-methoxyphenyl)cyclopropyl)amino)ethyl)sulfonyl)-1-morpholino-1-oxopropan-2-yl)benzamide] | < 1000 | − (− is <20%) |
| O=C(N[C@@H](CCCCN[C@@H]1C[C@H]1c1ccc(F)cc1)C(=O)N1CCCCC1)c1ccccn1 [Example 7, N-[(2S)-6-[[(1R,2S)-2-(4-fluorophenyl)cyclopropyl]amino]-1-oxo-1-(piperidin-1-yl)hexan-2-yl]pyridine-2-carboxamide] | < 1000 | − (− is <20%) |
| O=C(N[C@@H](CCCCN[C@@H]1C[C@H]1c1ccccc1)C(=O)N1CCCCC1)c1ccccc1 [Example 2, N—((S)-1-oxo-6-(((1R,2S)-2-phenylcyclopropyl)amino)-1-(piperidin-1-yl)hexan-2-yl)benzamide] | < 1000 | − (− is <20%) |
| O=C(N[C@@H](COCCN[C@@H]1C[C@H]1c1ccc(F)cc1)C(=O)N1CCOCC1)c1ccc(F)cc1 [Example 20, 4-fluoro-N—((S)-3-(2-(((1R,2S)-2-(4-fluorophenyl)cyclopropyl)amino)ethoxy)-1-morpholino-1-oxopropan-2-yl)benzamide] | – | − (− is <20%) |
| COc1ccc([C@@H]2C[C@H]2NC(=O)COC[C@H](NC(=O)c2ccc(F)cc2)C(=O)N2CCOCC2)cc1 [Example 25, 4-fluoro-N—((S)-3-(2-((1R,2S)-2-(4-methoxyphenyl)cyclopropylamino)-2-oxoethoxy)-1-morpholino-1-oxopropan-2-yl)benzamide] | – | + (+ is ≥20%) |
| CN1CCN(C(=O)[C@H](CCCCN[C@@H]2C[C@H]2c2ccccc2)NC(=O)c2ccccc2)CC1 [Example 4, N—((S)-1-(4-methylpiperazin-1-yl)-1-oxo-6-(((1R,2S)-2-phenylcyclopropyl)amino)hexan-2-yl)benzamide] | < 1000 | + (+ is ≥20%) |
| O=C(N[C@@H](CCCCN[C@@H]1C[C@H]1c1ccc(F)cc1)C(=O)N1CCS(=O)(=O)CC1)c1ccccc1 [Example 16, N—((S)-1-(1,1-dioxidothiomorpholino)-6-(((1R,2S)-2-(4-fluorophenyl)cyclopropyl)amino)-1-oxohexan-2-yl)benzamide] | < 1000 | + (+ is ≥20%) |
| O=C(N[C@@H](CCCCN[C@@H]1C[C@H]1c1ccc(F)cc1)C(=O)N1CCCCC1)c1ccc(-c2ccccc2)cc1 [Example 15, N—((S)-6-(((1R,2S)-2-(4-fluorophenyl)cyclopropyl)amino)-1-oxo-1-(piperidin-1-yl)hexan-2-yl)-[1,1′-biphenyl]-4-carboxamide] | – | − (− is <20%) |
| O=C(N[C@@H](CCCCN[C@@H]1C[C@H]1c1ccc(F)cc1)C(=O)N1CCOCC1)c1ccccc1 [Example 11, N—((S)-6-(((1R,2S)-2-(4-fluorophenyl)cyclopropyl)amino)-1-morpholino-1-oxohexan-2-yl)benzamide] | < 1000 | + (+ is ≥20%) |
| O=C(N[C@@H](CCCCN[C@@H]1C[C@H]1c1ccccc1)C(=O)N1CCCC1)c1ccccc1 [Example 1, N—((S)-1-oxo-6-(((1R,2S)-2-phenylcyclopropyl)amino)-1-(pyrrolidin-1-yl)hexan-2-yl)benzamide] | < 1000 | – |
| CN(C(=O)c1ccccc1)[C@@H](CCCCN[C@]1(C)C[C@H]1c1ccc(F)cc1)C(=O)N1CCN(S(C)(=O)=O)CC1 [Example 27, N-[(2S)-6-[[(1R,2S)-2-(4-fluorophenyl)-1-methylcyclopropyl]amino]-1-(4-methanesulfonylpiperazin-1-yl)-1-oxohexan-2-yl]-N-methylbenzamide] | < 1000 | + (+ is ≥20%) |
| COc1ccc([C@@H]2C[C@H]2NC(=O)CCC[C@H](NC(=O)c2ccc(F)cc2)C(=O)N2CCN(C)CC2)cc1 [Example 26, 4-fluoro-N—((S)-6-((1R,2S)-2-(4-methoxyphenyl)cyclopropylamino)-1-(4-methylpiperazin-1-yl)-1,6-dioxohexan-2-yl)benzamide] | – | + (+ is ≥20%) |
| CN1CCN(C(=O)[C@H](CCCC(=O)N[C@@H]2C[C@H]2c2ccc(F)cc2)NC(=O)c2ccc(F)cc2)CC1 [Example 24, 4-fluoro-N—((S)-6-((1R,2S)-2-(4-fluorophenyl)cyclopropylamino)-1-(4-methylpiperazin-1-yl)-1,6-dioxohexan-2-yl)benzamide] | – | + (+ is ≥20%) |
| O=C(CN[C@@H]1C[C@H]1c1ccc(F)cc1)NC[C@H](NC(=O)c1ccc(F)cc1)C(=O)N1CCOCC1 [Example 21, 4-fluoro-N—((S)-3-(2-(((1R,2S)-2-(4-fluorophenyl)cyclopropyl)amino)acetamido)-1-morpholino-1-oxopropan-2-yl)benzamide] | – | − (− is <20%) |

Source: US10882835B2 (Imago Biosciences, Inc., priority 2013, dated 2021)
